# Experimental data as given in US6737383B1, “Herbicidal oxadiazolidines” (priority 1999, dated 2004).
# Columns and labels:
# giant foxtail = test: Test B pre/postemergence giant foxtail; assay type: in vivo, Setaria faberii
# How it was run: (§1)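 Herbicidal effect was estimated by eye on a ten-point control scale after plants spent twelve to sixteen days in a greenhouse following soil or foliar treatment. Foliar sprays targeted plants at one to four leaves; all doses were formulated in a non-phytotoxic solvent with surfactant.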
# corn = test: Test B pre/postemergence corn; assay type: in vivo, Zea mays
# How it was run: as §1
# sugar beet = test: Test B pre/postemergence sugar beet; assay type: in vivo, Beta vulgaris
# How it was run: as §1
# wheat = test: Test B pre/postemergence wheat; assay type: in vivo, Triticum aestivum
# How it was run: as §1
# crabgrass = test: Test B pre/postemergence crabgrass; assay type: in vivo, Digitaria sanguinalis
# How it was run: as §1
# soybean = test: Test B pre/postemergence soybean; assay type: in vivo, Glycine max
# How it was run: as §1
# velvetleaf = test: Test B pre/postemergence velvetleaf; assay type: in vivo, Abutilon theophrasti
# How it was run: as §1
# surinam grass = test: Test B pre/postemergence surinam grass; assay type: in vivo, Brachiaria decumbens
# How it was run: as §1
# morningglory = test: Test B pre/postemergence morningglory; assay type: in vivo, Ipomoea hederacea
# How it was run: as §1
# cocklebur = test: Test B pre/postemergence cocklebur; assay type: in vivo, Xanthium strumarium
# How it was run: as §1
# bedstraw = test: Test B pre/postemergence bedstraw; assay type: in vivo, Galium aparine
# How it was run: as §1
# rape = test: Test B pre/postemergence rape; assay type: in vivo, Brassica napus
# How it was run: as §1
# wild oat = test: Test B pre/postemergence wild oat; assay type: in vivo, Avena fatua
# How it was run: as §1
# pigweed = test: Test B pre/postemergence pigweed; assay type: in vivo, Amaranthus retroflexus
# How it was run: as §1
# purple nutsedge = test: Test B pre/postemergence purple nutsedge; assay type: in vivo, Cyperus rotundus
# How it was run: as §1
# blackgrass = test: Test B pre/postemergence blackgrass; assay type: in vivo, Alopecurus myosuroides
# How it was run: as §1
# [1] = Postemergence, Rate 62 g/ha, scale 0 to 10, 0 is no effect, 10 is complete control
# [2] = Postemergence, Rate 125 g/ha, scale of 0 to 10 where 0 is no effect and 10 is complete control
# [3] = Preemergence, Rate 125 g/ha, scale of 0 to 10 where 0 is no effect and 10 is complete control
# [4] = Preemergence, Rate 250 g/ha, scale 0 (no effect) to 10 (complete control)
# [5] = Rate 62 g/ha, Preemergence, scale 0 to 10
# [6] = Rate 250 g/ha, Postemergence, scale 0 to 10, 0 is no effect, 10 is complete control
# [7] = Rate 500 g/ha, Postemergence, scale 0 to 10, 0 is no effect, 10 is complete control
# [8] = Rate 500 g/ha, Preemergence, scale 0 to 10 (0 no effect, 10 complete control)
smiles,measurement,setting,value
C#CCn1c(=O)on(C(=O)N(c2ccccc2)C(C)C)c1=O [Compound 754],"Plant response rating, Giant foxtail",giant foxtail; [1],4
same,Giant foxtail plant response rating,giant foxtail; [2],8
same,"Plant response rating, Giant foxtail",giant foxtail; [3],9
same,Giant foxtail plant response rating,giant foxtail; [4],9
same,Giant foxtail plant response rating,giant foxtail; [5],8
same,Giant foxtail plant response rating,giant foxtail; [6],8
same,Giant foxtail plant response rating,giant foxtail; [7],8
same,Giant foxtail plant response rating,giant foxtail; [8],9
same,"Plant response rating, Corn",corn; [1],0
same,Corn plant response rating,corn; [2],0
same,"Plant response rating, Corn",corn; [3],0
same,Corn plant response rating,corn; [4],0
same,Corn plant response rating,corn; [5],0
same,Corn plant response rating,corn; [6],2
same,Corn plant response rating,corn; [7],5
same,Corn plant response rating,corn; [8],0
same,"Plant response rating, Sugarbeets",sugar beet; [1],0
same,"Plant response rating, Sugarbeets",sugar beet; [3],0
same,Sugarbeets plant response rating,sugar beet; [4],3
same,Sugarbeets plant response rating,sugar beet; [5],0
same,Sugarbeets plant response rating,sugar beet; [6],0
same,Sugarbeets plant response rating,sugar beet; [7],3
same,Sugarbeets plant response rating,sugar beet; [8],7
same,"Plant response rating, Wheat",wheat; [1],0
same,"Plant response rating, Wheat",wheat; [3],3
same,Wheat plant response rating,wheat; [4],7
same,Wheat plant response rating,wheat; [5],0
same,Wheat plant response rating,wheat; [6],5
same,Wheat plant response rating,wheat; [7],5
same,Wheat plant response rating,wheat; [8],9
same,"Plant response rating, Crabgrass",crabgrass; [1],5
same,Crabgrass plant response rating,crabgrass; [2],5
same,"Plant response rating, Crabgrass",crabgrass; [3],9
same,Crabgrass plant response rating,crabgrass; [4],9
same,Crabgrass plant response rating,crabgrass; [5],8
same,Crabgrass plant response rating,crabgrass; [6],9
same,Crabgrass plant response rating,crabgrass; [7],9
same,Crabgrass plant response rating,crabgrass; [8],9
same,"Plant response rating, Soybean",soybean; [1],0
same,"Plant response rating, Soybean",soybean; [3],0
same,Soybean plant response rating,soybean; [4],0
same,Soybean plant response rating,soybean; [5],0
same,Soybean plant response rating,soybean; [6],2
same,Soybean plant response rating,soybean; [7],2
same,Soybean plant response rating,soybean; [8],0
same,"Plant response rating, Velvetleaf",velvetleaf; [1],0
same,"Plant response rating, Velvetleaf",velvetleaf; [3],1
same,Velvetleaf plant response rating,velvetleaf; [4],3
same,Velvetleaf plant response rating,velvetleaf; [5],0
same,Velvetleaf plant response rating,velvetleaf; [6],0
same,Velvetleaf plant response rating,velvetleaf; [7],0
same,Velvetleaf plant response rating,velvetleaf; [8],5
same,"Plant response rating, B. signalgrass",surinam grass; [1],0
same,B. signalgrass plant response rating,surinam grass; [2],2
same,B. signalgrass plant response rating,"surinam grass; Preemergence, Rate 62 g/ha, scale of 0 to 10 where 0 is no effect and 10 is complete control",3
same,"Plant response rating, B. signalgrass",surinam grass; [3],3
same,B. signalgrass plant response rating,surinam grass; [4],8
same,B. signalgrass plant response rating,surinam grass; [6],6
same,B. signalgrass plant response rating,surinam grass; [7],8
same,B. signalgrass plant response rating,surinam grass; [8],9
same,"Plant response rating, Morningglory",morningglory; [1],10
same,Morningglory plant response rating,morningglory; [2],10
same,"Plant response rating, Morningglory",morningglory; [3],0
same,Morningglory plant response rating,morningglory; [4],1
same,Morningglory plant response rating,morningglory; [5],0
same,Morningglory plant response rating,morningglory; [6],10
same,Morningglory plant response rating,morningglory; [7],10
same,Morningglory plant response rating,morningglory; [8],1
same,"Plant response rating, Cocklebur",cocklebur; [1],0
same,Cocklebur plant response rating,cocklebur; [2],0
same,"Plant response rating, Cocklebur",cocklebur; [3],0
same,Cocklebur plant response rating,cocklebur; [4],0
same,Cocklebur plant response rating,cocklebur; [5],0
same,Cocklebur plant response rating,cocklebur; [6],0
same,Cocklebur plant response rating,cocklebur; [7],0
same,Cocklebur plant response rating,cocklebur; [8],0
same,Bedstraw plant response rating,bedstraw; [2],0
same,"Plant response rating, Bedstraw",bedstraw; [3],0
same,Bedstraw plant response rating,bedstraw; [4],0
same,Bedstraw plant response rating,bedstraw; [5],0
same,Bedstraw plant response rating,bedstraw; [6],0
same,Bedstraw plant response rating,bedstraw; [8],0
same,"Plant response rating, Rape",rape; [1],0
same,Rape plant response rating,rape; [2],0
same,"Plant response rating, Rape",rape; [3],4
same,Rape plant response rating,rape; [4],6
same,Rape plant response rating,rape; [5],0
same,Rape plant response rating,rape; [6],0
same,Rape plant response rating,rape; [7],0
same,Rape plant response rating,rape; [8],8
same,"Plant response rating, Wild oats",wild oat; [1],0
same,"Plant response rating, Wild oats",wild oat; [3],6
same,Wild oats plant response rating,wild oat; [4],8
same,Wild oats plant response rating,wild oat; [5],0
same,Wild oats plant response rating,wild oat; [6],0
same,Wild oats plant response rating,wild oat; [7],0
same,Wild oats plant response rating,wild oat; [8],9
same,Redroot pigweed plant response rating,pigweed; [2],0
same,"Plant response rating, Redroot pigweed",pigweed; [3],8
same,Redroot pigweed plant response rating,pigweed; [4],9
same,Redroot pigweed plant response rating,pigweed; [5],8
same,Redroot pigweed plant response rating,pigweed; [6],0
same,Redroot pigweed plant response rating,pigweed; [8],9
same,"Plant response rating, Nutsedge",purple nutsedge; [1],0
same,Nutsedge plant response rating,purple nutsedge; [2],0
same,"Plant response rating, Nutsedge",purple nutsedge; [3],3
same,Nutsedge plant response rating,purple nutsedge; [4],3
same,Nutsedge plant response rating,purple nutsedge; [5],3
same,Nutsedge plant response rating,purple nutsedge; [7],0
same,Nutsedge plant response rating,purple nutsedge; [8],10
same,"Plant response rating, Blackgrass",blackgrass; [1],2
same,Blackgrass plant response rating,blackgrass; [2],4
same,"Plant response rating, Blackgrass",blackgrass; [3],9
same,Blackgrass plant response rating,blackgrass; [4],9
same,Blackgrass plant response rating,blackgrass; [5],7
same,Blackgrass plant response rating,blackgrass; [6],5
same,Blackgrass plant response rating,blackgrass; [7],5
same,Blackgrass plant response rating,blackgrass; [8],9
